Common to all, as to assay type: cell-based, human
The test system of one data set is T47Dp53 cells. As to the kind of experiment: Cell cycle assay in T47Dp53 cells. Particulars: 150 nM, 48 hours, relative to untreated control.
Another data set relates to mir-23b miRNA. The data set is described as follows: pGL3-mir-23b sensor luciferase assay in HeLa cells. The conditions noted are these: pGL3-mir-23b sensor-expressing HeLa cells.
The test system of data set [1] is differentiated adipocytes. As to the kind of experiment: Hallmark genes and triglycerides in differentiated adipocytes. The conditions noted are these: 250 nM, transfected day nine, measured 12th day post differentiation. The text has this:
The effect of the oligomeric compounds of the present invention targeting miRNAs on the expression of markers of cellular differentiation was examined in differentiated adipocytes.
As previously described, the HSL, aP2, Glut4, and PPARγ genes play important rolls in the uptake of glucose and the metabolism and utilization of fats. Also as previously described, an increase in triglyceride content is another well-established marker for adipocyte differentiation. Human white preadipocytes (Zen-Bio Inc., Research Triangle Park, N.C.) were grown in preadipocyte media (ZenBio Inc.). After the cells reached confluence (approximately three days), they were exposed to differentiation media (Zen-Bio, Inc.) containing a PPAR-γ agonist, IBMX, dexamethasone, and insulin for three days. Cells were then fed Adipocyte Medium (Zen-Bio, Inc.), which was replaced at 2 to 3 day intervals. One day before transfection, 96-well plates were seeded with 3000 cells/well. Cells were then transfected on day nine post-differentiation, according to standard published procedures with 250 nM oligonucleotide in LIPOFECTIN™ (Invitrogen Corporation, Carlsbad, Calif.) (Monia et al., J. Biol. Chem. 1993 268(19):14514-22). Oligomeric compounds were tested in triplicate on each 96-well plate, and the effect of TNF-α, known to inhibit adipocyte differentiation, was also measured in triplicate. Oligomeric compound treatments and transfectant-only negative controls may be measured up to six times per plate. On day twelve post-differentiation, cells were washed and lysed at room temperature, and the expression of the four hallmark genes, HSL, aP2, Glut4, and PPARγ, as well as triglyceride (TG) accumulation were measured in adipocytes transfected with the uniform 2′-MOE phosphorothioate (PS) previously described in Example 13 as well as the chimeric gapmer oligomeric compounds targeting the mir-143 miRNA and the mir-143 pri-miRNA described in Example 16. On day twelve post-differentiation, cells were lysed in a guanadinium-containing buffer and total RNA was harvested. The amount of total RNA in each sample was determined using a Ribogreen Assay (Molecular Probes, Eugene, Oreg.). Real-time PCR was performed on the total RNA using primer/probe sets for the adipocyte differentiation hallmark genes Glut4, HSL, aP2, and PPARγ. Triglyceride levels as well as mRNA levels for each of the four adipocyte differentiation hallmark genes are expressed relative to control levels (control=treatment with ISIS-29848 (SEQ ID NO: 737)).

Data on three substances can be found in patent US8178506B2, “Oligomeric compounds and compositions for use in modulation of small non-coding RNAs” (Regulus Therapeutics Inc., priority 2003, dated 2012).

In the oligonucleotide strings, read from the 5' end, every base follows the letter of its sugar. An asterisk marks phosphorothioate; unmarked linkages are phosphodiester. Other units and linkages are bracketed, terminal groups are in braces. A string of capitals states the bases alone. e = 2'-O-(2-methoxyethyl) (MOE); [5mC] = 5-methylcytosine; d = 2'-deoxy (DNA)

On to “328403 (antisense eA*eG*eG*e[5mC]*e[5mC]*dT*dA*dT*dT*d[5mC]*d[5mC]*dT*dG*dT*dA*eG*e[5mC]*eA*eA*eA) [compound 328403]”, for which, in the data set on T47Dp53 cells, the “% cells in cell cycle phase G1” value was determined as 114%, the “% cells in cell cycle phase G2/M” value is recorded as 94%, the “% cells in cell cycle phase S” value came to 87% and the “% cells in cell cycle phase aneuploid” value came out at 89%. The “% cells in cell cycle phase subG1” value in the data set with T47Dp53 cells amounted to 140%.
On to “327924 (antisense eG*e[5mC]*eA*eA*eG*e[5mC]*e[5mC]*e[5mC]*eA*eG*eA*e[5mC]*e[5mC]*eG*e[5mC]*eA*eA*eA*eA*eA*eG) [compound 327924]”, for which the values for the Fold change luciferase with mir-23b miRNA (1.3 nM), in the data set with mir-23b miRNA (5 nM) and with mir-23b miRNA (20 nM) were 1.15, 0.68 and 0.92, respectively.
Consider “CTAGTGGTCCTAAACATTTCAC (chemistry not given here) [ISIS 327878, uniform 2′-MOE PS; targets mir-203]”, for which the “expression of hallmark marker genes in differentiated adipocytes” value in data set [1] was “decreased expression of the aP2, HSL, Glut4 and PPARγ marker genes”.
